Type in all cases: in vivo
Data set [1] relates to Cucurbit Leaf Beetle (Aulacophora Femoralis). Briefly: Test against cucurbit leaf beetle (Aulacophora femoralis), leaf dip. Particulars: active compound concentration of 100 ppm; second instar larvae; after 7 days. An outline of the steps:
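Cucumber leaves dipped in compound solution (DMF solvent, polyoxyethylene alkyl phenyl ether emulsifier), air-dried, and placed with five second-instar larvae in cups on sterilized soil at 25° C. Dead larvae counted after 7 days; activity expressed as percent larvae killed.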

The test system of another data set is Boophilus microplus. The experiment in a line: Boophilus microplus test (injection). Particulars: for activity (mortality in %; 100% means that all eggs are infertile): application rate of 20 μg/animal, injection, after 7 days. As for the experimental part:
Solvent: dimethyl sulfoxide
Five adult engorged female ticks (Boophilus microplus) are injected with […] compound solution into the abdomen. Ticks are transferred into replica plates and incubated in a climate chamber for a period of time. Egg deposition of fertile eggs is monitored.
After 7 days mortality in % is determined. 100% means that all eggs are infertile; 0% means that all eggs are fertile. […]

In data set [2] the test system is Tobacco Cutworm (Spodoptera litura) Larvae. The experiment in a line: Test against tobacco cutworm (Spodoptera litura) larvae, leaf dip. Particulars: active compound concentration of 100 ppm, third instar larvae, after 7 days. An outline of the steps:
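Sweet potato leaves were dipped in the test solution (DMF solvent, polyoxyethylene alkyl phenyl ether emulsifier), air-dried and offered to ten third-instar larvae per dish at 25 °C, with fresh leaves added on days 2 and 4. Mortality was counted at day 7 and expressed as % insecticidal activity (100% = all dead).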

The test system of data set [3] is Two-Spotted Spider Mite (Tetranychus Urticae). Briefly: Test against two-spotted spider mite (Tetranychus urticae), spray. Particulars: active compound concentration of 100 ppm; adult mites; after 7 days. An excerpt: Solvent: 3 parts by weight of dimethylformamide
Emulsifier: 1 part by weight of polyoxyethylene alkyl phenyl ether

As to `CCc1cc(C(F)(C(F)(F)F)C(F)(F)F)cc(C)c1NC(=O)c1ccc(CNC(=O)CC2CC2)cn1` [Compound 7-5], the insecticidal activity in data set [1] and in data set [2] was 100% throughout. In addition, the “activity (mortality in %; 100% means that all eggs are infertile)” value in the data set with Boophilus microplus was 95%.
With `CC(=O)NCc1ccc(C(=O)Nc2c(Cl)cc(C(F)(C(F)(F)F)C(F)(F)C(F)(F)F)cc2Cl)cc1Cl` (racemic) [Compound 5-242], the insecticidal activity in data set [1] and in data set [2] was 100% in each case. The acaricidal activity in data set [3] was found to be 100%.
As to `CCC(=O)NCc1ccc(C(=O)Nc2c(C)cc(C(F)(C(F)(F)F)C(F)(F)F)cc2OC(F)F)cc1Cl` [Compound 5-295], the insecticidal activity in data set [1] and in data set [2] was 100% in each case. Moreover, the acaricidal activity in data set [3] was 100%.
On to `CCc1cc(C(F)(C(F)(F)F)C(F)(F)F)cc(C)c1NC(=O)c1ccc(CNC(=O)c2cccnc2F)c(C)c1` [Compound 5-103], for which the insecticidal activity in data set [1] and in data set [2] was 100% throughout. The acaricidal activity in data set [3] is listed as 100%.
`CCc1cc(C(F)(C(F)(F)F)C(F)(F)F)cc(C)c1NC(=O)c1cc(F)c(CNC(C)=O)cc1F` [Compound 5-58]: the insecticidal activity in data set [1] and in data set [2] was 100% each time. Further, the acaricidal activity in data set [3] came to 100%.
`CCc1cc(C(F)(C(F)(F)F)C(F)(F)F)cc(C)c1NC(=O)c1ccc(CNC(=O)CC(F)(F)F)c(Cl)c1` [Compound 5-81]: the insecticidal activity in data set [1] and in data set [2] was 100% each time. Moreover, the acaricidal activity in data set [3] amounted to 100%.
For the compound `CCc1cc(C(F)(C(F)(F)F)C(F)(F)F)cc(C)c1NC(=O)c1ccc2c(c1)CCC2NC(=O)CC(F)(F)F` (stereo not drawn) [Compound 10-6], the insecticidal activity in data set [1] and in data set [2] was 100% each time. Also, in data set [3], the acaricidal activity turned out to be 100%.
For `CCc1cc(C(F)(C(F)(F)F)C(F)(F)F)cc(C)c1NC(=O)c1cc(F)c(CNC(=O)CC(F)(F)F)cc1F` [Compound 5-62], the insecticidal activity in data set [1] and in data set [2] was 100% in each case. The acaricidal activity in data set [3] was 100%.
As for `CCc1cc(C(F)(C(F)(F)F)C(F)(F)F)cc(C)c1NC(=O)c1ccc(CNC(C)=O)c(Cl)c1` [Compound 5-77], the insecticidal activity in data set [1] and in data set [2] was 100% in each case. The compound also returned an acaricidal activity in data set [3] of 100%.
Take `CCc1cc(C(F)(C(F)(F)F)C(F)(F)F)cc(C)c1NC(=O)c1cc(F)c(CNC(=O)CC2CC2)cc1F` [Compound 5-61]: the insecticidal activity in data set [1] and in data set [2] was 100% each time. In data set [3], the acaricidal activity was found to be 100%.
Take `CCc1cc(C(F)(C(F)(F)F)C(F)(F)F)cc(C)c1NC(=O)c1ccc(CNC(C)=O)c(Br)c1` [Compound 5-85]: the insecticidal activity in data set [1] and in data set [2] was 100% in each case. In data set [3], this compound had an acaricidal activity of 100%.
On to `CC(=O)NCc1ccc(C(=O)Nc2c(C)cc(C(F)(C(F)(F)F)C(F)(F)F)cc2OC(F)F)cc1Cl` [Compound 5-294], for which the insecticidal activity in data set [1] and in data set [2] was 100% in each case. This compound yielded an acaricidal activity in data set [3] of 100%.
Take `CCc1cc(C(F)(C(F)(F)F)C(F)(F)C(F)(F)F)cc(C)c1NC(=O)c1ccc(CNC(=O)c2cccnc2Cl)c(Br)c1` (stereo not drawn) [Compound 5-175]: the insecticidal activity in data set [1] and in data set [2] was 100% throughout. Moreover, the acaricidal activity in data set [3] came out at 100%.
The mortality is the share of the test organisms that died. On to `CCc1cc(C(F)(C(F)(F)F)C(F)(F)F)cc(C)c1NC(=O)c1ccc(-n2cncn2)c(CNC(=O)OC(C)(C)C)c1` [Compound 12-1, tert-butyl[5-{[2-ethyl-4-(1,1,1,2,3,3,3-heptafluoropropan-2-yl)-6-methylphenyl]carbamoyl}-2-(1H-1,2,4-triazol-1-yl)benzyl]carbamate], for which, in the data set on Boophilus microplus (Rhipicephalus microplus, 168 h, read-out: activity (mortality in %; 100% means that all eggs are infertile)), the mortality at 0.02 mg worked out at 100%. Further, in data set [2] (Spodoptera litura, foliar, 168 h, read-out: insecticidal activity), the pest or weed control at 100 ppm was determined as 100%.
On to `CCc1cc(C(F)(C(F)(F)F)C(F)(F)F)cc(C)c1NC(=O)c1ccc(CNC(=O)c2cccnc2F)c(Br)c1` [Compound 5-93], for which the insecticidal activity in data set [1] and in data set [2] was 100% throughout. In data set [3], this compound came in with an acaricidal activity of 100%.
Consider `CCC(=O)NC(C)c1ccc(C(=O)Nc2c(C)cc(C(F)(C(F)(F)F)C(F)(F)F)cc2CC)cc1` (stereo not drawn) [Compound 9-3], for which the insecticidal activity in data set [1] and in data set [2] was 100% each time. For the same compound, the acaricidal activity in data set [3] is reported as 100%.
As for `Cc1cc(C(F)(C(F)(F)F)C(F)(F)F)cc(OC(F)F)c1NC(=O)c1ccc(CNC(=O)C2CC2)c(Cl)c1` [Compound 5-341], the insecticidal activity in data set [1] and in data set [2] was 100% each time. For the same compound, in data set [3], the acaricidal activity is listed as 100%.
Consider `Cc1cc(C(F)(C(F)(F)F)C(F)(F)F)cc(OC(F)F)c1NC(=O)c1ccc(C#N)cc1Cl` [Compound I-12], for which the insecticidal activity in data set [1] and in data set [2] was 100% each time. The same compound came in with an acaricidal activity in data set [3] of 100%.
For the compound `CCc1cc(C(F)(C(F)(F)F)C(F)(F)Br)cc(C)c1NC(=O)c1ccc(CNC(=O)CSC)c(Cl)c1` (stereo not drawn) [Compound 5-320], the insecticidal activity in data set [1] and in data set [2] was 100% each time. The compound also had an acaricidal activity in data set [3] of 100%.
As to `CCc1cc(C(F)(C(F)(F)F)C(F)(F)C(F)(F)F)cc(C)c1NC(=O)c1ccc(CNC(C)=O)c(Cl)c1` (stereo not drawn) [Compound 5-150], the insecticidal activity in data set [1] and in data set [2] was 100% in each case. In addition, the acaricidal activity in data set [3] is 100%.
As to `CSCC(=O)NCc1ccc(C(=O)Nc2c(Cl)cc(C(F)(C(F)(F)F)C(F)(F)C(F)(F)F)cc2Cl)cc1Cl` (stereo not drawn) [Compound 5-331], the insecticidal activity in data set [1] and in data set [2] was 100% throughout. The acaricidal activity in data set [3] came to 100%.
As to `CCc1cc(C(F)(C(F)(F)F)C(F)(F)C(F)(F)F)cc(C)c1NC(=O)c1ccc(CNC(=O)CC(F)(F)F)c(F)c1` (stereo not drawn) [Compound 5-148], the insecticidal activity in data set [1] and in data set [2] was 100% throughout. The compound further showed an acaricidal activity in data set [3] of 100%.
Consider `CCC(=O)NCc1ccc(C(=O)Nc2c(C)cc(C(F)(C(F)(F)F)C(F)(F)C(F)(F)F)cc2CC)cc1Cl` (stereo not drawn) [Compound 5-151], for which the insecticidal activity in data set [1] and in data set [2] was 100% each time. Further, the acaricidal activity in data set [3] amounted to 100%.
`CCC(=O)NCc1ccc(C(=O)Nc2c(C)cc(C(F)(C(F)(F)F)C(F)(F)Br)cc2CC)cc1Cl` (stereo not drawn) [Compound 5-220]: the insecticidal activity in data set [1] and in data set [2] was 100% in each case. The compound also gave an acaricidal activity in data set [3] of 100%.
For `CCc1cc(C(F)(C(F)(F)F)C(F)(F)C(F)(F)F)cc(C)c1NC(=O)c1ccc(CNC(C)=O)c(Br)c1` (stereo not drawn) [Compound 5-157], the insecticidal activity in data set [1] and in data set [2] was 100% each time. The same compound displayed an acaricidal activity in data set [3] of 100%.
Take `CCc1cc(C(F)(C(F)(F)F)C(F)(F)F)cc(C)c1NC(=O)c1ccc(CNC(=O)c2cccnc2Cl)cc1` [Compound 5-41]: the insecticidal activity in data set [1] and in data set [2] was 100% in each case. In data set [3], this compound displayed an acaricidal activity of 100%.
As for `O=C(CC1CC1)NCc1ccc(C(=O)Nc2c(Cl)cc(C(F)(C(F)(F)F)C(F)(F)F)cc2Cl)cc1` [Compound 5-225], the insecticidal activity in data set [1] and in data set [2] was 100% throughout. Further, the acaricidal activity in data set [3] amounted to 100%.
In the case of `CCc1cc(C(F)(C(F)(F)F)C(F)(F)F)cc(C)c1NC(=O)c1ccc(CNC(=O)CC(F)(F)F)c(Br)c1` [Compound 5-89], the insecticidal activity in data set [1] and in data set [2] was 100% in each case. In data set [3], the acaricidal activity came to 100%.
As to `CCc1cc(C(F)(C(F)(F)F)C(F)(F)F)cc(C)c1NC(=O)c1ccc(C#N)nc1` [Compound J-1], in the data set on Boophilus microplus, the “activity (mortality in %; 100% means that all eggs are infertile)” value was 95%.
For `CCc1cc(C(F)(C(F)(F)F)C(F)(F)Br)cc(C)c1NC(=O)c1ccc(CNC(=O)CC(F)(F)F)c(Cl)c1` (stereo not drawn) [Compound 5-221], the insecticidal activity in data set [1] and in data set [2] was 100% in each case. For the same compound, the acaricidal activity in data set [3] is listed as 100%.
For the compound `CCC(=O)NCc1ccc(C(=O)Nc2c(C)cc(C(F)(C(F)(F)F)C(F)(F)F)cc2CC)cc1Br` [Compound 5-86], the insecticidal activity in data set [1] and in data set [2] was 100% each time. In data set [3], this compound displayed an acaricidal activity of 100%.
On to `CCC(=O)NC1CCc2cc(C(=O)Nc3c(C)cc(C(F)(C(F)(F)F)C(F)(F)F)cc3CC)ccc21` (stereo not drawn) [Compound 10-3], for which the insecticidal activity in data set [1] and in data set [2] was 100% throughout. This compound also showed an acaricidal activity in data set [3] of 100%.
In the case of `CCc1cc(C(F)(C(F)(F)F)C(F)(F)F)cc(C)c1NC(=O)c1ccc(CNC(=O)C2CC2)cc1` [Compound 5-30], the insecticidal activity in data set [1] and in data set [2] was 100% in each case. The acaricidal activity in data set [3] is 100%.

These data come from US9227923B2, “Pesticidal carboxamides” (Bayer Intellectual Property GmbH, priority 2009, dated 2016).
